Results as given in patent publication US8992985B2, “Core-shell magnetic particles and related methods” (priority 2010, dated 2015).
Read-outs that look alike come from different tables or passages of the source.

Columns and labels:
[1] = in human blood; cited from earlier work
[2] = in aquatic organisms; cited from earlier work
[3] = system: Staphylococcus epidermidis CECT 4184; assay: Broth microdilution MIC assay; assay type: cell-based; settings: S. epidermidis (+); LB broth, 37° C
Description: (§1) The following microorganisms were used (American Type Culture Collection (ATCC), Manassas, Vir., or La Colección Española de Cultivos Tipo (CECT), Valencia, Spain): Gram-positive bacteria Staphylococcus aureus ATCC 25923 and ATCC 6538, Staphylococcus epidermidis CECT 4184, Lactococcus lactis ATCC 7963, Streptococcus phocae ATCC51973, Lactococcus garvieae ATCC2155, Gram-negative bacteria Pseudomonas aeruginosa CECT 110 and ATCC 15692, Escherichia coli ATCC 11229, and Salmonella enterica ATCC 13311. The bacteria were grown at 37° C. in Luria-Bertani (LB) broth (Sigma-Aldrich Chemical Co.) (pH 7.3), which was also used for dilutions. The […] inhibitory concentration (MIC) values of PHMBG and the particles were determined in vitro using a broth microdilution assay. The polymer or nanoparticles were dissolved or dispersed, respectively, with brief sonication; into small stock samples of sterile deionized water (10 mL, 3 mg/mL). Serial dilutions between 5 and 300 mg/L final concentration in the liquid medium were dispensed into sterile 96-well polystyrene culture Corning® Costar® cell plates (Sigma-Aldrich Chemical Co.). The diluted samples were inoculated with a suspension of the test bacterium on the liquid medium to a final concentration of approximately 10^4 cfu/mL. The MIC was defined as the lowest concentration of PHMBG polymer, PHMBG-PEI-M or PHMBG-M/SiO2 particles that inhibited bacterial growth after […] at 37° C. Measurements were conducted in triplicate. The precision of the MIC values was limited by the dilution factor and was estimated to be ±5 mg/L, Negative control experiments were conducted with the dilutions without bactericidal additives and no reduction in bacterial counts after 24 h was observed.
(§2) For testing the antiseptic properties of the core-shell magnetic nanoparticles of the invention, five Gram-positive and three Gram-negative bacteria were chosen to represent a wide range of waterborne microorganisms, all of which are pathogenic with the exception of L. lactis, which is extensively used in buttermilk and cheese production. Gram-positive S. aureus and S. epidermidis are well-known human pathogens; S. phocae is a fish and seal pathogen; and L. garvieae causes septicemic infections of fish and is the main risk factor for the Mediterranean European trout industry. […] Both PHMBG-M/SiO2 (t) and PHMBG-M/SiO2 (s) particle species were tested, as well as PHMBG solutions and PHMBG-PEI-M particle suspensions.

Pseudomonas aeruginosa = assay: Broth microdilution MIC assay; assay type: cell-based; settings: P. aeruginosa (−); LB broth, 37° C
Description: as §1, §2

[4] = system: Escherichia coli ATCC 11229; assay: Broth microdilution MIC assay; assay type: cell-based; settings: E. coli (−); LB broth, 37° C
Description: as §1, §2

[5] = system: Streptococcus phocae ATCC51973; assay: Broth microdilution MIC assay; assay type: cell-based; settings: S. phocae (+); LB broth, 37° C
Description: as §1, §2

[6] = system: Lactococcus lactis ATCC 7963; assay: Broth microdilution MIC assay; assay type: cell-based; settings: L. lactis (+); LB broth, 37° C
Description: as §1, §2

[7] = system: Lactococcus garvieae ATCC2155; assay: Broth microdilution MIC assay; assay type: cell-based; settings: L. garvieae (+); LB broth, 37° C
Description: as §1, §2

[8] = system: Salmonella enterica ATCC 13311; assay: Broth microdilution MIC assay; assay type: cell-based; settings: S. enterica (−); LB broth, 37° C
Description: as §1, §2

Staphylococcus aureus = assay: Broth microdilution MIC assay; assay type: cell-based; settings: S. aureus (+); LB broth, 37° C
Description: as §1, §2

Compound	half-life [1]	half-life [2]	Minimum inhibitory concentrations (MIC) [3] [µg/mL]	Minimum inhibitory concentrations (MIC) (Pseudomonas aeruginosa) [µg/mL]	Minimum inhibitory concentrations (MIC) [4] [µg/mL]	Minimum inhibitory concentrations (MIC) [5] [µg/mL]	Minimum inhibitory concentrations (MIC) [6] [µg/mL]	Minimum inhibitory concentrations (MIC) [7] [µg/mL]	Minimum inhibitory concentrations (MIC) [8] [µg/mL]	Minimum inhibitory concentrations (MIC) (Staphylococcus aureus) [µg/mL]
[CH3][Hg][Cl] [methylmercury]	about 50 days	about 72 days	–	–	–	–	–	–	–	–
Poly(hexamethylene biguanide) [PHMBG]	–	–	0.5	30	5	1.6	20	40	110	5
